Laboratory results reported in US20250034159A1, “INHIBITORS OF EPIDERMAL GROWTH FACTOR RECEPTOR” (ORIC Pharmaceuticals, Inc., priority 2021, published 2025).

Legend:
[1] = system: BaF3_EGFR LR/CS cells; assay: Biological Activity Assay D: BaF3 cell proliferation assay, EGFR L858R/C797S mutant (BaF3 LR/CS); format: cell-based; details: Ba/F3 EGFR; BaF3_EGFR LR/CS cells, ~72 hours, CellTiter-Glo; read-out: BaF3 LR/CS IC50
Procedure: (§1) One frozen vial of cells should be thawed into one T25 flask in 10 mL media. Keep the flask upright in the incubator.
(§2) Method: One frozen vial of cells was thawed into one T25 flask in 10 mL media and the flask was kept upright in the incubator. Cells were split 1:10 every two to three days when cells reached confluency of around 1×10^6 cells/mL. Bravo protocol files were used with Greiner 384-well plates for all steps of compound preparation, cell plating and compound addition. […] 16 μL of DMSO were added (for compounds starting at 20 μM) or 28 μL DMSO (for compounds starting at 5 μM) to 96-well V-bottom polypropylene plate: wells 1A-1H (8 compounds/plate). […] 20 μL DMSO were added to the remainder of the wells (columns 2-12) in the 96-well V-bottom plate. A Bravo liquid handler was used to make 1:3 serial dilutions from columns 1 to 11 (12 remains as DMSO only) to prepare the DMSO dilution plate. 144 μL media were added to each well of a new 96-well V-bottom polypropylene plate to prepare the intermediate dilution plate. A Bravo or 96-head Integra liquid handler was used to add and mix 6 μL of test compound from the DMSO dilution plate to the intermediate dilution plate. (1:25 dilution). Cells were transferred from a flask into a 50 mL conical, vortex gently and the number of cells were counted, with a target cell number of about 1×10^6 cells per mL. The cells were diluted in culture medium in 50 mL conical or T25 flask, and the cell suspension was added to BRAVO reservoir and then use Bravo protocol to plate the appropriate number of cells shown below in 36 μl of medium per well as follows: Ba/F3-WT-EGFR 2000 cells per well of a 384 well plate; Ba/F3-LR/CS-EGFR 2000 cells per well of a 384 well plate; and Ba/F3-d19/CS-EGFR 1500 cells per well of a 384 well plate. An extra 10 mL of dead volume was utilized in each reservoir.
(§3) Using a Bravo liquid handler, 4 μl of test compound solution was added per well from the intermediate dilution plate to plated cells (1:10 dilution from the intermediate plate, final compound dilution 1:250 and final DMSO concentration per well is 0.4%). Using the 96 BRAVO Head, 25 μl were aspirated from the intermediate dilution plate and 4 μl each were dispensed into 4 wells (square pattern) in the 384-well plate. Any remaining test compound is dispensed into a secondary plate to prevent cross contamination of cells in the intermediate compound plate. After the compounds were added, the plate was shaken at 600 rpm gently for 60 see, and the plates were incubated in a tissue culture incubator, 37° C., 5% CO2, for ˜ 72 hours. After incubation, CTG 2.0 reagent was allowed to equilibrate to room temperature (˜3 hours) and cells to reach room temperature (˜10-15 minutes) and reagent was added to cells (40 μL/well) using a Bravo liquid handler. The plates were shaken to allow proper mixing (˜5 min) and let settle for 10 minutes and were read on Tecan plate reader using the appropriate luminescence method. Data from plate reader was transferred to an excel file and entered directly into Dotmatics using the protocols under EGFR Project/Cell Proliferation/named: “BaF3_EGFRwt_CP”, “BaF3_EGFR_d19/CS_CP”, “BaF3_EGFR_LR/CS_CP”. Curves were fit with a 4-parameter model and IC50s calculated by the Dotmatics software. DMSO wells were averaged to define the high control (100% growth). The average of the highest concentration of the positive control compound (afatinib) was used to define the 0% growth and used to lock the bottom of the curves. The tops of the curves were not fixed.

[2] = system: BaF3_EGFR d19/CS cells; assay: Biological Activity Assay D: BaF3 cell proliferation assay, EGFR exon 19 deletion/C797S (BaF3 d19/CS); format: cell-based; details: Ba/F3 EGFR; BaF3_EGFR d19/CS cells, ~72 hours, CellTiter-Glo; read-out: BaF3 d19/CS IC50
Procedure: as §1, §2, §3

[3] = target: recombinant human EGFR exon 19 deletion/C797S double mutant protein (Homo sapiens (Human), UniProt P00533, C797S/DEL746-750); assay: Biological Activity Assay C: biochemical assay against EGFR exon 19 deletion/C797S protein (EGFR d19/CS)
Procedure: In Row A of a 384-well polypropylene plate, was added 48 μL of DMSO. In wells A1 and A24, were added 12 μL of DMSO. […] To a well in Row A were added 12 μL of each 10 mM test compound stock (100% DMSO). […] The final intermediate dilution plate contained 4×16-point compound serial dilutions in assay buffer. The DMSO concentration was 10%. The intermediate compound dilution plate was transferred to the Bravo and the “5 uL dispense into ARP.pro” protocol was run. To the black low volume assay ready plates, were added 5 μL of 40 uM Phosphosens peptide sensor/4 mM ATP working solution to each well. […] To column 24, was added 10 μL of assay buffer. The final DMSO concentration was 2.5%. […] The plates were sealed with the TopSeal-A Plus plate seals. […] Set for 90 cycles with 120 second interval. […] The slope of each curve was constructed using Dotmatics in each well, and each IC50s was calculated using a 4-parameter fit model.

[4] = system: Ba/F3_EGFR WT cells; assay: Biological Activity Assay D: BaF3 cell proliferation assay, EGFR wild-type (BaF3 WT); format: cell-based; details: Ba/F3 EGFR; Ba/F3_EGFR WT cells, ~72 hours, CellTiter-Glo; read-out: BaF3 WT IC50
Procedure: as §1, §2, §3

Sequence of recombinant human EGFR exon 19 deletion/C797S double mutant protein (P00533 other isoform, or with tags, fused parts or gaps C797S/del 1-668/del 746-750 limits assumed): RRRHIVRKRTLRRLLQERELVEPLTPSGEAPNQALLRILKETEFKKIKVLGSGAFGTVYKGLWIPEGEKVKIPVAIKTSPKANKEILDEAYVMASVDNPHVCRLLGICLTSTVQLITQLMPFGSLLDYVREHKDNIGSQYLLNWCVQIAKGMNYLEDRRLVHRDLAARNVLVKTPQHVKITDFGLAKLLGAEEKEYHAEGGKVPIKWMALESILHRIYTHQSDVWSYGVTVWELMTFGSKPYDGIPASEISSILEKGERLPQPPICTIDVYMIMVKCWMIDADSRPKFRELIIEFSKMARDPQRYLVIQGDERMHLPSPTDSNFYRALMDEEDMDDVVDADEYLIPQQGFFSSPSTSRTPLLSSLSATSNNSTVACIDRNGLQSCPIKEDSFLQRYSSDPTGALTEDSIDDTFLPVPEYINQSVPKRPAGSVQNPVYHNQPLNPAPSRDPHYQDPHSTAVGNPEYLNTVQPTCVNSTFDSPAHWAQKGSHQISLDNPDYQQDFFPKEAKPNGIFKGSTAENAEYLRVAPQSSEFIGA

## Fc1ccc(-c2nn(C3CCCOC3)cc2-c2ncnc3oc(-c4ccccc4)cc23)cc1 (racemic) [Example 122, 4-(3-(4-Fluorophenyl)-1-(tetrahydro-2H-pyran-3-yl)-1H-pyrazol-4-yl)-6-phenylfuro[2,3-d]pyrimidine]
[1]
  IC50: 68 nM
[2]
  IC50: 114 nM
[3]
  IC50: 0.55 nM
[4]
  IC50: 1850 nM

## Fc1ccc(-c2nn([C@H]3CCOC[C@@H]3F)cc2-c2ncnc3oc(-c4ccccc4)cc23)cc1 (racemic) [Example 151, 4-[1-(3-fluorooxan-4-yl)-3-(4-fluorophenyl)-1H-pyrazol-4-yl]-6-phenylfuro[2,3-d]pyrimidine]
[1]
  IC50: 16.1 nM
[2]
  IC50: 68.1 nM
[3]
  IC50: 1.45 nM
[4]
  IC50: 1870 nM

## Fc1ccc(-c2nn([C@H]3CCOC[C@H]3F)cc2-c2ncnc3oc(-c4ccccc4)cc23)cc1 (racemic) [Example 184, 4-[1-(3-fluorooxan-4-yl)-3-(4-fluorophenyl)-1H-pyrazol-4-yl]-6-phenylfuro[2,3-d]pyrimidine]
[1]
  IC50: 30.7 nM
[2]
  IC50: 57.6 nM
[3]
  IC50: 0.26 nM
[4]
  IC50: 1770 nM

## CS(=O)(=O)[C@@H]1CC[C@H](n2cc(-c3ncnc4oc(-c5ccccc5)cc34)c(-c3ccc(F)cc3)n2)C1 (racemic) [Example 185, 4-{3-(4-fluorophenyl)-1-[3-(methanesulfonyl)cyclopentyl]-1H-pyrazol-4-yl}-6-phenylfuro[2,3-d]pyrimidine]
[1]
  IC50: 256 nM
[2]
  IC50: 395 nM
[3]
  IC50: 1.43 nM
[4]
  IC50: 6980 nM

## C[C@@H]1OCC[C@H]1n1cc(-c2ncnc3oc(-c4ccccc4)cc23)c(-c2ccc(F)cc2)n1 (racemic) [Example 199, 2,5-anhydro-1,3,4-trideoxy-3-[3-(4-fluorophenyl)-4-(6-phenylfuro[2,3-d]pyrimidin-4-yl)-1H-pyrazol-1-yl]pentitol]
[1]
  IC50: 85.4 nM
[2]
  IC50: 294 nM
[3]
  IC50: 0.92 nM
[4]
  IC50: 3340 nM

## CC1(C)CC(n2cc(-c3ncnc4oc(-c5ccccc5)cc34)c(-c3ccc(F)cc3)n2)CO1 (racemic) [Example 227, 4-[1-(5,5-dimethyloxolan-3-yl)-3-(4-fluorophenyl)-1H-pyrazol-4-yl]-6-phenylfuro[2,3-d]pyrimidine]
[1]
  IC50: 53.3 nM
[2]
  IC50: 42.3 nM
[3]
  IC50: 0.63 nM
[4]
  IC50: 2670 nM

## O=S1(=O)CCC[C@H](Cn2cc(-c3ncnc4oc(-c5ccccc5)cc34)c(-c3ccc(F)cc3)n2)C1 (single isomer, unassigned) [Example 125]
[1]
  IC50: 11.8 nM
[2]
  IC50: 52.1 nM
[3]
  IC50: 0.21 nM
[4]
  IC50: 741 nM

## O=S1(=O)CCC[C@@H](Cn2cc(-c3ncnc4oc(-c5ccccc5)cc34)c(-c3ccc(F)cc3)n2)C1 (single isomer, unassigned) [Example 126]
[1]
  IC50: 14.6 nM
[2]
  IC50: 58.2 nM
[3]
  IC50: 0.18 nM
[4]
  IC50: 720 nM

## CC(=O)N1CC[C@@H](n2cc(-c3ncnc4oc(-c5ccccc5)cc34)c(-c3ccc(F)cc3)n2)C1 (single isomer, unassigned) [Example 128]
[1]
  IC50: 105 nM
[2]
  IC50: 125 nM
[3]
  IC50: 0.41 nM
[4]
  IC50: 1740 nM

## CC(=O)N1CC[C@H](n2cc(-c3ncnc4oc(-c5ccccc5)cc34)c(-c3ccc(F)cc3)n2)C1 (single isomer, unassigned) [Example 129]
[1]
  IC50: 66.6 nM
[2]
  IC50: 107 nM
[3]
  IC50: 0.2 nM
[4]
  IC50: 1610 nM
